One assay has as its target T1, GluA1o-γ8 (Homo sapiens, UniProt P42261+Q8WXS5).
T1 construct: expressed in transfected cells
The assay is described as follows: Calcium flux assay (FLIPR), inhibition of glutamate response of GluA1o-γ8 channel in HEK293 cells. The assay is classed as cell-based. The note with it: HEK293 cells stably expressing GRIA1o-CACNG8 fusion; 15 μM glutamate; pIC50 = negative log of the IC50 in molar. The source says: This assay was used to test compounds for their ability to inhibit TARP γ8 dependent AMPA receptor activity. The AMPA receptor is a non-selective cation channel activated by glutamate. Ionotropic glutamate receptors normally desensitize too rapidly to allow detectable calcium influx in a FLIPR assay (Strange et al. (2006). “Functional characterisation of homomeric ionotropic glutamate receptors GluR1-GluR6 in a fluorescence-based high throughput screening assay.” Comb Chem High Throughput Screen 9(2): 147-158). But, this desensitization is incomplete, and a substantial steady-state current remains in the sustained presence of glutamate (Cho et al. (2007). “Two families of TARP isoforms that have distinct effects on the kinetic properties of AMPA receptors and synaptic currents.” Neuron 55(6): 890-904).
An in vitro assay was used to determine the potency of test compounds as inhibitors of the glutamate response of the channel formed by GluA1o-γ8. To ensure a 1:1 stoichiometry of GluA1o and γ8 subunits in the expressed channel, a fusion of the cDNAs for GRIA1o and CACNG8 was used. Following Shi et al (2009) “The stoichiometry of AMPA receptors and TARPs varies by neuronal cell type.” Neuron 62(5): 633-640), the C-terminus of the cDNA for GRIA1o was fused to the N-terminus of the cDNA for γ8. The linker sequence was QQQQQQQQQQEFAT. Channels expressed with this construct appear to have similar properties to channels formed by co-expression of GRIA1o with an excess of CACNG8 (Shi et al. 2009). A clonal cell line in HEK293 cells stably expressing this construct, with a geneticin selection marker, was generated for use in this assay. Cell expressing the GRIA1o-CACNG8 fusion construct were grown in a monolayer in 96- or 384-well microtiter plates. They were washed with assay buffer (135 mM NaCl, 4 mM KCl, 3 mM CaCl2, 1 mM MgCl2, 5 mM glucose, 10 mM HEPES, pH 7.4, 300 mOs) using a Biotek EL405 plate washer. The cells were then loaded with a calcium-sensitive dye (Calcium-5 or Calcium-6, Molecular Devices) and the test compounds at a range of concentrations. Calcium flux following the addition of 15 μM glutamate was monitored using a Molecular Devices FLIPR Tetra.
The fluorescence in each well was normalized to the fluorescence of negative and positive control wells. The negative control wells had no added compounds, and the positive control wells had been incubated with 10 μM CP465022 (a non-subtype-selective AMPA receptor antagonist) (Lazzaro et al. (2002). “Functional characterization of CP-465,022, a selective, noncompetitive AMPA receptor antagonist.” Neuropharmacology 42(2): 143-153). The responses to glutamate as functions of the test compound concentrations were fitted to a four-parameter logistic function. The fitted parameter corresponding to the midpoint was taken to be the potency of inhibition of the compound. The data in Table 4 below illustrates the observed potentcy for the compounds described herein. pIC50 refers to the negative log of the IC50 in molar.
T1 sequence (P42261+Q8WXS5 fused): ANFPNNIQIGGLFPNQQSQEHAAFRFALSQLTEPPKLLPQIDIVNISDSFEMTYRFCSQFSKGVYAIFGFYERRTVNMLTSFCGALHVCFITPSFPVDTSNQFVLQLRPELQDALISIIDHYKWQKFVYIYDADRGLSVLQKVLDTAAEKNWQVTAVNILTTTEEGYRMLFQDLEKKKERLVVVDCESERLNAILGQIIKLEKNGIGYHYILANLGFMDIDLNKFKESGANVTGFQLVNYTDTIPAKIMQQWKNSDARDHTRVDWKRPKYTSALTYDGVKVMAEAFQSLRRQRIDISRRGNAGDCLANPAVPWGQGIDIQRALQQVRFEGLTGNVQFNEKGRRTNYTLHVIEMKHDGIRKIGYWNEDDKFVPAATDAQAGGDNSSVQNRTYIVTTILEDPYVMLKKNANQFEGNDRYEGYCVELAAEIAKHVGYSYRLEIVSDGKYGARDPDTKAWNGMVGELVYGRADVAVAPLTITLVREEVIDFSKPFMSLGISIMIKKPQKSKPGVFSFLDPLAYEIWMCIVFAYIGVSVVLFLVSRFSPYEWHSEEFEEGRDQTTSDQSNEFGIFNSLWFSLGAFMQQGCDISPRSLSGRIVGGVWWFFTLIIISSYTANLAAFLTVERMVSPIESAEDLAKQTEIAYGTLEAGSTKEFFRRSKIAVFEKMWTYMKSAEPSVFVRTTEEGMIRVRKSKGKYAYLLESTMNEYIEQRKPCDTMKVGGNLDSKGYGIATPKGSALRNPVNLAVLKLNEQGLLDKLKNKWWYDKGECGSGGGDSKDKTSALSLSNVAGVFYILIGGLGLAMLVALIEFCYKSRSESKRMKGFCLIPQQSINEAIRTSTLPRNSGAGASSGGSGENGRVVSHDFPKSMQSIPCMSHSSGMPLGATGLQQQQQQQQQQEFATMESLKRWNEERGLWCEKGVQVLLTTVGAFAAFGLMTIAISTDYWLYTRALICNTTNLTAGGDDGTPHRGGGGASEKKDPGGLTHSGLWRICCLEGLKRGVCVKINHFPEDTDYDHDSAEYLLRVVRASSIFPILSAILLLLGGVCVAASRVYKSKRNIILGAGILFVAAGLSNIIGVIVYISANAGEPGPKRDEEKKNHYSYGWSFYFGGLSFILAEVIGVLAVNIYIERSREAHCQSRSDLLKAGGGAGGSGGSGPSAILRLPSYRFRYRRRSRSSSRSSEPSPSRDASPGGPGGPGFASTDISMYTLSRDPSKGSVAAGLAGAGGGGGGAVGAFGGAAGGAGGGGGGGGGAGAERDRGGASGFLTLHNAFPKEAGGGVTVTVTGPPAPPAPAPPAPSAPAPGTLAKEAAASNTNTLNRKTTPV
As for `O=C1Cc2cc(-c3c(Cl)cccc3OC(F)(F)F)ccc2N1` [Example 5, 5-[2-Chloro-6-(trifluoromethoxy)phenyl]indolin-2-one], the “GluR1-γ8 pIC50” value came out at 7.8.

Still in this assay, the particulars now being: HEK293 cells stably expressing GRIA1o-CACNG8 fusion; 15 μM glutamate; pIC50 = negative log of the IC50 in molar; read-out: GluR1-γ8 pIC50 (converted).
Turning to `COc1cc(-c2c(Cl)cccc2OC(F)(F)F)cc2c1NC(=O)C2` [Example 178, 5-[2-Chloro-6-(trifluoromethoxy)phenyl]-7-methoxy-indolin-2-one], the IC50 is 0.794 nM.

`CC(C)(C#N)c1cccc(Cl)c1-c1ccc2c(c1)CC(=O)N2` [Example 81, 2-[3-Chloro-2-(2-oxoindolin-5-yl)phenyl]-2-methyl-propanenitrile]: the IC50 is 79.4 nM. Still for that read-out and setting: then `Cc1cccc(F)c1-c1cc(Cl)c2c(c1)CC(=O)N2` [Example 166, 7-Chloro-5-(2-fluoro-6-methyl-phenyl)indolin-2-one], with 0.794 nM; and `Cc1cc(-c2c(C)cccc2F)cc2c1NC(=O)C2` [Example 136, 5-(2-Fluoro-6-methyl-phenyl)-7-methyl-indolin-2-one], with 3.16 nM. `Cc1cc(-c2c(C)cncc2C)cc2c1NC(=O)C2` [Example 148, 5-(3,5-Dimethyl-4-pyridyl)-7-methyl-indolin-2-one]: the IC50 was 10 nM.

As for `Cc1cc(-c2c(F)cccc2OC(F)F)cc2c1NC(=O)C2` [Example 131, 5-[2-(Difluoromethoxy)-6-fluoro-phenyl]-7-methyl-indolin-2-one], the IC50 is 5.01 nM.

On to `COC1CCN(c2cccc(-c3cc(F)c4c(c3)CC(=O)N4)c2Cl)CC1` [Example 121, 5-(2-Chloro-3-(4-methoxypiperidin-1-yl)phenyl)-7-fluoroindolin-2-one], for which the IC50 was greater than 10000 nM. As for `Cc1cccc(Cl)c1-c1cc(Cl)c2c(c1)CC(=O)N2` [Example 165, 7-Chloro-5-(2-chloro-6-methyl-phenyl)indolin-2-one], the IC50 was 0.0631 nM.

Regarding `Cc1cc(-c2c(Cl)ccnc2Cl)cc2c1NC(=O)C2` [Example 152, 5-(2,4-Dichloro-3-pyridyl)-7-methyl-indolin-2-one], the IC50 was 3.16 nM. On the same count and under the same terms, then `CCc1cc(-c2c(C)cccc2Cl)cc2c1NC(=O)C2` [Example 170, 5-(2-Chloro-6-methyl-phenyl)-7-ethyl-indolin-2-one], with 0.251 nM. Take `Cc1cccc(C#N)c1-c1cc(Cl)c2c(c1)CC(=O)N2` [Example 164, 2-(7-Chloro-2-oxo-indolin-5-yl)-3-methyl-benzonitrile]: the IC50 is 1.58 nM. For `N#Cc1ccc(Cl)c(-c2cc(Cl)c3c(c2)CC(=O)N3)c1OC(F)(F)F` [Example 156, 4-Chloro-3-(7-chloro-2-oxo-indolin-5-yl)-2-(trifluoromethoxy)benzonitrile], the IC50 is 0.0794 nM.

Take `Cc1cc(-c2c(Cl)cccc2C#N)cc2c1NC(=O)C2` [Example 143, 3-Chloro-2-(7-methyl-2-oxoindolin-5-yl)benzonitrile]: the IC50 was 5.01 nM. Turning to `N#Cc1cc(-c2c(Cl)cccc2OC(F)(F)F)cc2c1NC(=O)C2` [Example 175, 5-[2-Chloro-6-(trifluoromethoxy)phenyl]-2-oxo-indoline-7-carbonitrile], the IC50 was 0.631 nM.

As to `Cc1cc(-c2cccc(C#N)c2C)cc2c1NC(=O)C2` [Example 134, 2-Methyl-3-(7-methyl-2-oxo-indolin-5-yl)benzonitrile], the IC50 is 100 nM. On the same count and under the same terms, the value for `CC(C)(C#N)c1cccc(Cl)c1-c1cc(F)c2c(c1)CC(=O)N2` [Example 119, 2-(3-Chloro-2-(7-fluoro-2-oxoindolin-5-yl)phenyl)-2-methylpropanenitrile] was 25.1 nM; that for `COC1CCN(c2cccc(-c3ccc4c(c3)CC(=O)N4)c2Cl)CC1` [Example 179, 5-[2-Chloro-3-(4-methoxy-1-piperidyl)phenyl]indolin-2-one] was 6310 nM. For the compound `N#CCc1cccc(Cl)c1-c1ccc2c(c1)CC(=O)N2` [Example 6, 2-[3-Chloro-2-(2-oxoindolin-5-yl)phenyl]acetonitrile], the IC50 was 31.6 nM. The same measure, in the same setting: then `O=C1Cc2cc(-c3c(Cl)cncc3OC(F)F)cc(Cl)c2N1` [Example 158, 7-Chloro-5-[3-chloro-5-(difluoromethoxy)-4-pyridyl]indolin-2-one], with 7.94 nM; and `O=C1Cc2cc(-c3c(Cl)cncc3Cl)cc(Cl)c2N1` [Example 159, 7-Chloro-5-(3,5-dichloro-4-pyridyl)indolin-2-one], with 7.94 nM. Take `Cc1cc(-c2c(C)cccc2OC(F)F)cc2c1NC(=O)C2` [Example 129, 5-[2-(Difluoromethoxy)-6-methyl-phenyl]-7-methyl-indolin-2-one]: the IC50 is 3.16 nM. For the compound `Cc1cc(-c2c(Cl)cncc2Cl)cc2c1NC(=O)C2` [Example 147, 5-(3,5-Dichloro-4-pyridyl)-7-methyl-indolin-2-one], the IC50 is 7.94 nM. Same read-out and setting: then `Cc1cccc(Cl)c1-c1ccc2c(c1)CC(=O)N2` [Example 3, 5-(2-Chloro-6-methyl-phenyl)indolin-2-one], with 100 nM; and `Cc1cccc(C(F)(F)F)c1-c1cc(Cl)c2c(c1)CC(=O)N2` [Example 167, 7-Chloro-5-[2-methyl-6-(trifluoromethyl)phenyl]indolin-2-one], with 0.316 nM. As for `CCc1cc(-c2c(C)cncc2C)cc2c1NC(=O)C2` [Example 173, 5-(3,5-Dimethyl-4-pyridyl)-7-ethyl-indolin-2-one], the IC50 was 15.8 nM.

`Cc1cc(-c2c(C)ccnc2Cl)cc2c1NC(=O)C2` [Example 149, 5-(2-Chloro-4-methyl-3-pyridyl)-7-methyl-indolin-2-one]: the IC50 is 15.8 nM. On the same count and under the same terms, then `COc1nccc(C)c1-c1cc(C)c2c(c1)CC(=O)N2` [Example 150, 5-(2-Methoxy-4-methyl-3-pyridyl)-7-methyl-indolin-2-one], with 31.6 nM; and `Cc1cc(-c2c(F)cccc2F)cc2c1NC(=O)C2` [Example 140, 5-(2,6-Difluorophenyl)-7-methyl-indolin-2-one], with 316 nM. For the compound `Cc1cc(-c2c(Cl)cnc(C(F)(F)F)c2Cl)cc2c1NC(=O)C2` [Example 144, 5-(3,5-Dichloro-2-(trifluoromethyl)pyridin-4-yl)-7-methylindolin-2-one], the IC50 was 12.6 nM. With `Cc1ccnc(Cl)c1-c1cc(Cl)c2c(c1)CC(=O)N2` [Example 160, 7-Chloro-5-(2-chloro-4-methyl-3-pyridyl)indolin-2-one], the IC50 was 6.31 nM. Same read-out and setting: the value for `O=C1Cc2cc(-c3c(Cl)cccc3OC(F)(F)F)cc(OC(F)(F)F)c2N1` [Example 177, 5-[2-Chloro-6-(trifluoromethoxy)phenyl]-7-(trifluoromethoxy)indolin-2-one] was 0.2 nM; that for `COc1cccc(F)c1-c1cc(C)c2c(c1)CC(=O)N2` [Example 139, 5-(2-Fluoro-6-methoxy-phenyl)-7-methyl-indolin-2-one] was 126 nM; that for `COc1cccc(OC(F)F)c1-c1cc(F)c2c(c1)CC(=O)N2` [Example 123, 5-[2-(Difluoromethoxy)-6-methoxy-phenyl]-7-fluoro-indolin-2-one] was greater than 10000 nM.

The record behind these values is patent publication US10604484B2, “Indolone compounds and their use as AMPA receptor modulators” (Janssen Pharmaceutica NV, priority 2015, dated 2020).
